# Experimental data: patent publication US7671048B2, “Substituted imidazo [1,5-a][1,2,4]triazolo[1,5-d][1,4]benzodiazepine derivatives” (priority 2004, dated 2010)
# Like-named read-outs stand apart in the source and are kept apart here.
# Key:
# GABA A receptor α1β3γ2 = molecular target: T1, GABA A receptor α1β3γ2 (Homo sapiens, UniProt P14867+P18507); assay: [3H]flumazenil competition binding, human α1β3γ2
# T1 construct: expressed in transfected cells; host or cells: HEK293 (transiently transfected), membranes
# Description: (§1) The affinity of compounds at GABA A receptor subtypes was measured by competition for [^3H]flumazenil (85 Ci/mmol; Roche) binding to HEK293 cells expressing rat (stably transfected) or human (transiently transfected) receptors of composition α1β3γ2, α2β3γ2, α3β3γ2 and α5β3γ2.
# (§2) Cell pellets were suspended in Krebs-tris buffer (4.8 mM KCl, 1.2 mM CaCl2, 1.2 mM MgCl2, 120 mM NaCl, 15 mM Tris; pH 7.5; binding assay buffer), homogenized by polytron for ca. 20 sec on ice and centrifuged for 60 min at 4° C. (50000 g; Sorvall, rotor: SM24=20000 rpm). The cell pellets were resuspended in Krebs-tris buffer and homogenized by polytron for ca. 15 sec on ice. Protein was measured (Bradford method, Bio-Rad) and aliquots of 1 mL were prepared and stored at −80° C.
# (§3) Radioligand binding assays were carried out in a volume of 200 μL (96-well plates) which contained 100 μL of cell membranes, [^3H]flumazenil at a concentration of 1 nM for α1, α2, α3 subunits and 0.5 nM for α5 subunits and the test compound in the range of 10^−10−3×10^−6 M. Nonspecific binding was defined by 10^−5 M diazepam and typically represented less than 5% of the total binding. Assays were incubated to equilibrium for 1 hour at 4° C. and harvested onto GF/C uni-filters (Packard) by filtration using a Packard harvester and washing with ice-cold-wash buffer (50 mM Tris; pH 7.5). After drying, filter-retained radioactivity was detected by liquid scintillation counting. Ki values were calculated using Excel-Fit (Microsoft) and are the means of two determinations.
# GABA A receptor α2β3γ2 = molecular target: T2, GABA A receptor α2β3γ2 (Homo sapiens, UniProt P18507+P47869); assay: [3H]flumazenil competition binding, human α2β3γ2
# T2 construct: expressed in transfected cells; host or cells: HEK293 (transiently transfected), membranes
# Description: as §1, §2, §3
# GABA A receptor α3β3γ2 = molecular target: T3, GABA A receptor α3β3γ2 (Homo sapiens, UniProt P18507+P34903); assay: [3H]flumazenil competition binding, human α3β3γ2
# T3 construct: expressed in transfected cells; host or cells: HEK293 (transiently transfected), membranes
# Description: as §1, §2, §3
# GABA A receptor α5β3γ2 = molecular target: T4, GABA A receptor α5β3γ2 (Homo sapiens, UniProt P18507+P31644); assay: [3H]flumazenil competition binding, human α5β3γ2
# T4 construct: expressed in transfected cells; host or cells: HEK293 (transiently transfected), membranes
# Description: as §1, §2, §3
# [1] = HEK293 cell membranes, human (transiently transfected) receptor, 1 nM [3H]flumazenil, mean of two determinations, read-out: Ki[nM] hα1
# [2] = HEK293 cell membranes, human (transiently transfected) receptor, 1 nM [3H]flumazenil, mean of two determinations, read-out: Ki[nM] hα2
# [3] = HEK293 cell membranes, human (transiently transfected) receptor, 1 nM [3H]flumazenil, mean of two determinations, read-out: Ki[nM] hα3
# [4] = HEK293 cell membranes, human (transiently transfected) receptor, 0.5 nM [3H]flumazenil, mean of two determinations, read-out: Ki[nM] hα5
Structure (SMILES),Ki (GABA A receptor α1β3γ2; [1]) [nM],Ki (GABA A receptor α2β3γ2; [2]) [nM],Ki (GABA A receptor α3β3γ2; [3]) [nM],Ki (GABA A receptor α5β3γ2; [4]) [nM],Ki (GABA A receptor α1β3γ2) [nM],Ki (GABA A receptor α2β3γ2) [nM],Ki (GABA A receptor α3β3γ2) [nM],Ki (GABA A receptor α5β3γ2) [nM]
"CC(=O)c1ncn2c1Cn1ncnc1-c1cc(F)ccc1-2 [Example 1, 1-[3-Fluoro-9H-imidazo[1,5-a][1,2,4]triazolo[1,5-d][1,4]benzodiazepin-10-yl]-ethanone]",314,183,233,104,,,,
"CCC(=O)c1ncn2c1Cn1ncnc1-c1cc(F)ccc1-2 [Example 2, 1-[3-Fluoro-9H-imidazo[1,5-a][1,2,4]triazolo[1,5-d][1,4]benzodiazepin-10-yl]-propan-1-one]",,,,,6.2,3.4,3.9,2.2
"O=C(c1ncn2c1Cn1ncnc1-c1cc(F)ccc1-2)C1CC1 [Example 3, Cyclopropyl-[3-fluoro-9H-imidazo[1,5-a][1,2,4]triazolo[1,5-d][1,4]benzodiazepin-10-yl]-methanone]",,,,,2.8,2,1.8,1.2
"O=C(CCCc1ccccc1)c1ncn2c1Cn1ncnc1-c1cc(F)ccc1-2 [Example 4, 1-[3-Fluoro-9H-imidazo[1,5-a][1,2,4]triazolo[1,5-d][1,4]benzodiazepin-10-yl]-4-phenyl-butan-1-one]",,,,,45.6,60,55.9,16.4
"CCC(=O)c1ncn2c1Cn1ncnc1-c1cc(Cl)ccc1-2 [Example 5, 1-[3-Chloro-9H-imidazo[1,5-a][1,2,4]triazolo[1,5-d][1,4]benzodiazepin-10-yl]-propan-1-one]",,,,,32.2,28.1,22.4,2.7
"O=C(c1ncn2c1Cn1ncnc1-c1cc(Cl)ccc1-2)C1CC1 [Example 6, Cyclopropyl-[3-chloro-9H-imidazo[1,5-a][1,2,4]triazolo[1,5-d][1,4]benzodiazepin-10-yl]-methanone]",,,,,14.5,18,19.9,2.2
"O=C1CCCN1C(=O)c1ncn2c1Cn1ncnc1-c1cc(F)ccc1-2 [Example 9, 1-[[3-Fluoro-9H-imidazo[1,5-a][1,2,4]triazolo[1,5-d][1,4]benzodiazepin-10-yl]carbonyl]-2-pyrrolidinone]",,,,,12.3,12.3,9,5.8
"C#CCNC(=O)c1ncn2c1Cn1ncnc1-c1cc(F)ccc1-2 [Example 10, 3-Fluoro-9H-imidazo[1,5-a][1,2,4]triazolo[1,5-d][1,4]benzodiazepine-10-carboxylic acid prop-2-ynylamide]",242,,,,,67.8,64.9,67.8
"CCOC(=O)c1ncn2c1Cn1ncnc1-c1cc(C3CC3)ccc1-2 [Example 12, Ethyl 3-cyclopropyl-9H-imidazo[1,5-a][1,2,4]triazolo[1,5-d][1,4]benzodiazepine-10-carboxylate]",,,,,1.7,0.9,0.7,0.6
"CCOC(=O)c1ncn2c1Cn1ncnc1-c1cc(OC)ccc1-2 [Example 14, Ethyl 3-methoxy-9H-imidazo[1,5-a][1,2,4]triazolo[1,5-d][1,4]benzodiazepine-10-carboxylate]",,,,,0.9,1.7,0.9,0.2
"CCOC(=O)c1ncn2c1Cn1ncnc1-c1cc(OC(F)(F)F)ccc1-2 [Example 19, Ethyl 3-trifluoromethoxy-9H-imidazo[1,5-a][1,2,4]triazolo[1,5-d][1,4]benzodiazepine-10-carboxylate]",,,,,3.4,1.1,1.4,0.7
"O=Cc1ncn2c1Cn1ncnc1-c1cc(Cl)ccc1-2 [Example 21, 3-Chloro-9H-imidazo[1,5-a][1,2,4]triazolo[1,5-d][1,4]benzodiazepine-10-carbaldehyd]",223,134,,,,,71.9,5.9
"CCOC(=O)c1ncn2c1Cn1ncnc1-c1cc(Br)ccc1-2 [Example 23, Ethyl 3-bromo-9H-imidazo[1,5-a][1,2,4]triazolo[1,5-d][1,4]benzodiazepine-10-carboxylate]",1.9,3.8,1.8,0.3,,,,
"C#Cc1ccc2c(c1)-c1ncnn1Cc1c(C(=O)OCC)ncn1-2 [Example 24, Ethyl 3-ethynyl-9H-imidazo[1,5-a][1,2,4]triazolo[1,5-d][1,4]benzodiazepine-10-carboxylate]",,,,,10.6,4.4,6.4,0.6
"COCCOC(=O)c1ncn2c1Cn1ncnc1-c1cc(Br)ccc1-2 [Example 25, 2-Methoxy-ethyl 3-bromo-9H-imidazo[1,5-a][1,2,4]triazolo[1,5-d][1,4]benzodiazepine-10-carboxylate]",,,,,20.3,28.5,18.8,1.4
"CCCC(=O)c1ncn2c1Cn1ncnc1-c1cc(Br)ccc1-2 [Example 26, 1-[3-Bromo-9H-imidazo[1,5-a][1,2,4]triazolo[1,5-d][1,4]benzodiazepin-10-yl]-butan-1-one]",,106,,,85.1,,72.7,3.5
"CC(C)CC(=O)c1ncn2c1Cn1ncnc1-c1cc(Br)ccc1-2 [Example 31, 1-[3-Bromo-9H-imidazo[1,5-a][1,2,4]triazolo[1,5-d][1,4]benzodiazepin-10-yl]-3-methyl-butan-1-one]",243,261,173,,,,,8.3
"O=C(CCc1ccccc1)c1ncn2c1Cn1ncnc1-c1cc(Br)ccc1-2 [Example 33, 1-[3-Bromo-9H-imidazo[1,5-a][1,2,4]triazolo[1,5-d][1,4]benzodiazepin-10-yl]-3-phenyl-propan-1-one]",109,160,133,,,,,3.8
"CCOC(=O)c1ncn2c1Cn1ncnc1-c1cc(NC(=O)C(F)(F)F)ccc1-2 [Example 38, Ethyl 3-(2,2,2-trifluoro-acetylamino)-9H-imidazo[1,5-a][1,2,4]triazolo[1,5-d][1,4]benzodiazepine-10-carboxylate]",,,,,3.1,7.3,5.7,1.2
"CCOC(=O)c1ncn2c1Cn1ncnc1-c1cc(NC(=O)C(C)C)ccc1-2 [Example 39, Ethyl 3-isobutyrylamino-9H-imidazo[1,5-a][1,2,4]triazolo[1,5-d][1,4]benzodiazepine-10-carboxylate]",,,,,11.4,73.5,39.7,6.4
"CCOC(=O)c1ncn2c1Cn1ncnc1-c1cc(NC(=O)CCOC)ccc1-2 [Example 41, Ethyl 3-(3-methoxy-propionylamino)-9H-imidazo[1,5-a][1,2,4]triazolo[1,5-d][1,4]benzodiazepine-10-carboxylate]",,,,,9.7,24.8,17.7,5.1
"CCOC(=O)c1ncn2c1Cn1ncnc1-c1cc(NC=O)ccc1-2 [Example 42, Ethyl 3-formylamino-9H-imidazo[1,5-a][1,2,4]triazolo[1,5-d][1,4]benzodiazepine-10-carboxylate]",,,,,6.5,8.6,4.9,2
"CCOC(=O)Nc1ccc2c(c1)-c1ncnn1Cc1c(C(=O)OCC)ncn1-2 [Example 43, Ethyl 3-ethoxycarbonylamino-9H-imidazo[1,5-a][1,2,4]triazolo[1,5-d][1,4]benzodiazepine-10-carboxylate]",,,,,5.3,22,14.4,2.6
"CCNC(=O)Nc1ccc2c(c1)-c1ncnn1Cc1c(C(=O)OCC)ncn1-2 [Example 44, Ethyl 3-(3-ethyl-ureido)-9H-imidazo[1,5-a][1,2,4]triazolo[1,5-d][1,4]benzodiazepine-10-carboxylate]",,,,,20.3,26,12.4,6.9
